# Test results from patent EP0434750B1 (priority 1988, dated 1990).
# Where “and” joins values, the source holds several entries; their conditions need not be identical. Equal values may be shown once. Read-outs that look alike come from different tables or passages of the source.
# Columns and labels:
# [1] = test system: monkeys (Macaca fascicularis); test: Neurological examination of MPTP-treated monkeys with or without chloroquine pretreatment; format: in vivo; settings: for Neurological Status: Reflexes / Neurological Status: Tone: control score 2; for Neurological Status: Spontaneous Movement: control score 10; for Neurological Status: Total (x 5.26): control 100; for Neurological Status: Tremor: control score 5
# From the text: Four animals are naive controls. […] TABLE 3
# [2] = test system: monkeys (Macaca fascicularis); test: Dopamine and homovanillic acid levels in monkey brain samples (HPLC); format: in vivo; settings: short-term chloroquine and MPTP; monkeys S1-3
# [3] = test system: Tyrosine hydroxylase (TH); test: Tyrosine hydroxylase activity in monkey brain homogenate (tritium release method); format: in vivo, Macaca fascicularis; settings: short-term chloroquine and MPTP; monkeys S1-3
# Description: (§5) Thirteen male monkeys (Macaca fascicularis) 5 to 8 years old, weighing 3.5 to 4.8 kg, are studied. […] Nine receive daily (0.35 mg per kg) injections of MPTP i.v. for four days. Three animals (M1-3) who received no chloroquine are the untreated controls. Six animals are pretreated with chioroquine (4 mg per kg) intramuscularly; three (S1-3) are pretreated for 12 days, and three (L1-3) for 24 days. All six pretreated animals continue to receive chloroquine injections during MPTP administration and for 10 days following MPTP exposure.
# Detection is done electrochemically on a glassy carbon electrode (Bioanalytical Systems Inc.) at an applied voltage of 0.65 V. Plasma levels of chloroquine are determined by HPLC with UV detection. Samples are deproteinated with 0.2 vol. of 25% trichloroacetic acid followed by centrifugation at 4°C for 30 minutes at 1,000 g. Supernatants are removed, lyophilized overnight and reconstituted with 80 µl of 0.1 M perchloric acid. Samples are analyzed directly using reverse-phase HPLC with a Whatman ODS-3 column (Whatman) and Pellosil C8 guard column (Alltech). The mobile phase for this system is 40% acetonitrile, 0.1 M sodium phosphate (pH 3.0) with 75 mM perchloric acid. Absorption is detected at 343 nm (Bergqvist, Y. et al., Chromat. 221, 2503 (1985)). Tyrosine hydroxylase (TH) activity is assayed by the tritium release method of Nagatsu, T. et al., Analyt. […] Supernatant fluid (50 µl) from brain homogenate (1 g tissue in 20 vol 50 mM Tris, H 7.4) are added to 7 ml glass scintillation vials containing 5 µl 6 DL-6-methyl-5,6,7,8-tetrahydropterine (2.8 mg ml^-1), 5 µl FeSO4 (2.78 mg ml ^-1) and 1 µC of ring labelled [^3H]tyrosine. Mixtures are incubated 30 minutes at 37°C and the reaction terminated by adding 50 µl 3 M Na2CO3, pH 11.6. Toluene/isoamyl alcohol scintillant (5 ml) is then added directly to the vial and the contents mixed for 10 seconds. The aqueous and organic phases are allowed to separate and the ^3H2O extracted into the organic phase determined.
# [4] = cynomolgus monkey, in vivo
# Description: as §5
# Detection is done electrochemically on a glassy carbon electrode (Bioanalytical Systems Inc.) at an applied voltage of 0.65 V. Plasma levels of chloroquine are determined by HPLC with UV detection. Samples are deproteinated with 0.2 vol. of 25% trichloroacetic acid followed by centrifugation at 4°C for 30 minutes at 1,000 g. Supernatants are removed, lyophilized overnight and reconstituted with 80 µl of 0.1 M perchloric acid. Samples are analyzed directly using reverse-phase HPLC with a Whatman ODS-3 column (Whatman) and Pellosil C8 guard column (Alltech). […] Absorption is detected at 343 nm (Bergqvist, Y. et al., Chromat. 221, 2503 (1985)). […] The aqueous and organic phases are allowed to separate and the ^3H2O extracted into the organic phase determined.
# [5] = Binding of MPTP to beef eye melanin (Scatchard analysis)
# Description: Melanin from beef eyes is prepared according to Potts, A.M., Ophthalmol. 3, 405 (1964). The pigment is finally suspended in distilled water to a concentration of 10 mg (by dry weight) per ml suspension.
# (§1) The reaction mixtures are incubated at room temperature for one hour. Reference samples contain distilled water instead of melanin.
# (§2) From the obtained data, the classes of binding sites, association constants and the binding capacity of the melanins are estimated according to Scatchard, G. et al., J. Am. Chem. Soc. 79, 12 (1957). As the molecular weight of melanin is unknown, the value for the number of binding sites is expressed as mol per mg melanin. The calculations are based on a melanin content of 2.5 mg per incubation.
# [6] = Binding of MPTP to synthetic dopamine melanin (Scatchard analysis)
# Description: Synthetic dopamine melanin is prepared by autooxidation (Lyden et al., supra). The dopamine melanin suspension (in distilled water) is adjusted to contain 5 mg melanin per ml. Both pigment suspensions are stored at 2°C.
# as §1, §2
# C57 black mice [7] = test: Striatal DA, DOPAC and HVA content in mice after MPTP; format: in vivo
# Description: Male C57BL/6J IMR mice 6-8 weeks of age are used throughout except in one experiment (see below) in which CB6F1 [(BALB/cByJ IMR x C57BL/gJ IMR)F1] mice of a similar age are used. Mice are housed five per cage in plexiglass cages with free access to food and water in a colony room maintained at 23 ± 1°C. Fluorescent lighting in the room is automatically turned on at 06.00 hours and off at 18.00 hours.
# (§3) All other studies are performed in C57 black mice.
# The mouse striatum is obtained by placing the brain on its dorsal surface and making two coronal cuts; the first at the caudal end of the olfactory bulbs, the second at the level of the optic chiasma. After placing the resulting brain slice on its rostral surface, one horizontal cut is made just below the corpus callosum and another just above the anterior commissure. Remaining parietotemporal cortex is trimmed away using the external capsule as a landmark. Septal tissue lying between the caudate nuclei is removed by cutting along the tissue planes created by the frontal horns of the lateral ventricles. Striatal tissue thus isolated weighs approximately 20 mg per animal. Immediately after dissection, tissue is wrapped in aluminum foil and stored in liquid nitrogen until assay, with the exception of tissue for uptake studies which is used immediately.
# The striatum is weighed, placed in a tube containing 1 ml of 0.4 normal perchloric acid, then homogenized with a Beckman polytron at a setting of 5 for 10 seconds. The homogenate is centrifuged at approximately 20,000 x g for 15 minutes. Concentrations of dopamine (DA), DOPAC and HVA in the supernatant are determined by reverse-phase liquid chromatography coupled with electrochemical detection according to the method of Mayer, G.S. et al., J. Chromatogr. 255, 533 (1983), with minor modifications. The mobile phase is prepared by mixing 965 ml of 0.15 M monochloroacetic acid with 35 ml of acetonitrile and adding 193 mg of sodium octyl sulfate. This solution is filtered and degassed and then 18 ml of tetrahydrofuran are added. Using this mobile phase at a flow rate of 1.3 ml/min, DA, DOPAC and HVA are resolved using a 4.6 mm x 25 cm C-18, 5 µ column (Brownless Labs). Detection and quantitation are performed using a dual series electrode detector (Coulochem Model 5100, Environmental Systems Associates, Wiggins, Mass.). Electrode potentials are set at +0.4 V (electrode 1) and -0.3 V (electrode 2). The response on electrode 2 is monitored (10 mV strip chart recorder) and used for quantitation relative to peak heights of known amounts of standards.
# [8] = test system: crude striatal synaptosomal suspensions; test: In vitro accumulation of [3H]DA by crude striatal synaptosomal suspensions; format: biochemical, mice; settings: for Km: read-out: Km(µm) of [^3H]DA uptake
# Description: as §3
# The in vitro accumulation of [^3H]DA by crude striatal synaptosomal suspensions is measured using the method of Snyder, S.H. et al., J.Pharmacol.Exp.Ther. 165, 78 (1968) with minor modifications. Briefly, crude synaptosomal suspensions are prepared by homogenizing striatal tissue in 50 vols. (w/v) of ice-cold 0.32 M sucrose, then centrifuging the homogenate for 10 minutes at 1,000 x g. […] After vortexing, tubes (except temperature blanks) are incubated in a waterbath at 37°C for five minutes, then returned to ice. Synaptosomes are harvested by filtration. Filters are rinsed twice with 5 ml aliquots of physiological saline. Radioactivity in the filters is quantified by liquid scintillation spectroscopy. Assays are performed in sextuplicate at each DA concentration, with half of the samples serving as blanks. Active uptake is defined as the difference between [^3H]DA (PM/mg tissue/5 min.) incubation at 37°C after correction for uptake at 0-4°C.
# [9] = target: [^3H]mazindol binding site, striatal membranes (Mus musculus, UniProt Q61327); settings: three weeks after MPTP 20 mg/kg/h x 4
# [^3H]mazindol binding site, striatal membranes, sequence (Q61327 whole entry): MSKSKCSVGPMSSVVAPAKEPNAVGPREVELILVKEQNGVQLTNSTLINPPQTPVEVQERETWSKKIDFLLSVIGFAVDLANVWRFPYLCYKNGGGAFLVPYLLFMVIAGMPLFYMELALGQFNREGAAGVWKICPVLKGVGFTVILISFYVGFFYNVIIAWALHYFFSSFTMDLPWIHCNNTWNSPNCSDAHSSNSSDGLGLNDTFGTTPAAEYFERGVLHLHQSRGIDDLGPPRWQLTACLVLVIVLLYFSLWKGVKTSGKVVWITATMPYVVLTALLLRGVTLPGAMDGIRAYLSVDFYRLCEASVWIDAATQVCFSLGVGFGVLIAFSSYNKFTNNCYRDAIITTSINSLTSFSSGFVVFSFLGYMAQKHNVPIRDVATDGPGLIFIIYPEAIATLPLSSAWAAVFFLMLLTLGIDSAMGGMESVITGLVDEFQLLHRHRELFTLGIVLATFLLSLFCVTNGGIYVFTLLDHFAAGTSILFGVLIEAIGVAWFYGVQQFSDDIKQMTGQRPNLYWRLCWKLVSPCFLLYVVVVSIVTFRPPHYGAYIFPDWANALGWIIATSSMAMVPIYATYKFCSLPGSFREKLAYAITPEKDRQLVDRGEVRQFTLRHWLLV
# Description: This group is used only for anatomical studies looking for cell loss in the substantive nigra cells (SNc). All other studies are performed in C57 black mice.
# [10] = Lethality of MPTP regimens in mice; format: in vivo; settings: mouse, in vivo, ip
# Description: as §3
# (§4) Approximately 20% of the mice die after the 20 mg/kg/h x 4 regimen. […]
# C57 black mice [11] = test: Lethality of MPTP regimens in mice; format: in vivo; settings: 2.5, 5 and 10 mg/kg/h x 4 MPTP regimens
# Description: as §3, §4
# C57 black mice [12] = test: Silver degeneration study of striatal nerve terminals (Fink-Heimer); format: in vivo
# Description: Nerve terminal degeneration studies are performed using the method of Fink, R.P. et al., Brain Research 4, 369 (1967) (Procedure 1). This method makes possible selective silver impregnation of degenerating nerve fibers and terminals. Mice for these studies are killed under sodium pentobarbital anesthesia (40 mg/kg) by transcardial perfusion with 10% formal saline. The brain is immediately removed and stored in perfusion fluid at 0-4°C for at least one week before being sectioned on a freezing microtomee. 30 µm coronal sections are collected in 5% formal saline, then stained with silver according to Fink et al., supra.
# Some fine granular degeneration is also found in the nucleus accumbens and olfactory tubercle, but in these regions it was much less dense. No such degeneration is found in identically treated sections of control mice, or in other brain regions visible in coronal brain sections at the level of the striatum.
# squirrel monkeys = test: Treatment of MPTP-induced parkinsonism in squirrel monkeys; format: in vivo; settings: i.p. MPTP, three dosage schedules (Groups A-C)
# Description: Male squirrel monkeys (aged 2-3 years) are used for this study. […] All injections are intraperitoneal.
# Three different dosage schedules of MPTP are used. Monkey Group A receives four doses, 2 mg/kg each, which are given at two-hour intervals. Monkey Group B is treated over a five-day period. On day 1, a single 2 mg/kg dose is given. On day 3, two injections of 2 mg/kg each are given, six hours apart. On day 5, a 3 mg/kg dose is given followed by a 0.5 mg/kg dose four hours later (total dose: 9.5 mg/kg). Three doses of 3 mg/kg each are given to Monkey Group C, spaced at six-day intervals. Monkey Group D serves as a control.
# A similar response to the same treatment is observed on each of the next four days. Subsequently, the animal becomes less responsive to medication and is sacrificed on day 10. One monkey in Group B responds to Sinemet® (one-eighth of a 10/100 tablet) with full mobility on day 9. However, on subsequent days, […] becomes increasingly less responsive to medication, often appearing uncoordinated and shaky. This monkey is sacrificed on day 15. […] Three days later, this monkey becomes profoundly hypokinetic, develops slow respirations, and dies.
# After increased bradykinesis and frequent nodding-off are observed in the monkeys, several monkeys of Groups A, B and C are administered melanin by injection into the cerebrospinal fluid at a dose of 50 mg/kg daily. […]
# [13] = long-term chloroquine (24 days) plus MPTP, monkeys L1-3
# [14] = short-term chloroquine (12 days) plus MPTP, monkeys S1-3
# [15] = one week after MPTP 20 mg/kg/h x 4
# [16] = three months after MPTP 20 mg/kg/h x 4
smiles,measurement,setting,value
CCN(CC)CCCC(C)Nc1ccnc2cc(Cl)ccc12 (stereo not shown) [Chloroquine],protection from MPTP-induced parkinsonian clinical symptoms,"[1]; chloroquine 4 mg per kg i.m. pretreatment, 12 or 24 days",Five of the six monkeys
same,Neurological Status: Reflexes,[1]; [13],1 and 2
same,Neurological Status: Tone,[1]; [13],1.5 and 1 and 2
same,Neurological Status: Spontaneous Movement,"[1]; short-term chloroquine 4 mg per kg i.m., pretreated 12 days, plus MPTP, monkeys S1-3",3
same,Neurological Status: Total (x 5.26),[1]; [14],47 and 58 and 42
same,Neurological Status: Reflexes,[1]; [14],1 and 2
same,Neurological Status: Tone,[1]; [14],2 and 1
same,Neurological Status: Tremor,[1]; [14],3 and 4
same,CAUDATE HVA,[2],8.0 nmol per g tissue and 10.5 nmol per g tissue and 9.2 nmol per g tissue
same,PUTAMEN HVA,[2],10.1 nmol per g tissue and 8.6 nmol per g tissue and 9.8 nmol per g tissue
same,CAUDATE TH (% control),[3],14.0 % control and 18.7 % control and 22.6 % control
same,PUTAMEN TH (% control),[3],20.0 % control and 23.3 % control and 29.8 % control
same,Chloroquine level relative to that in other monkeys monitored,[4],* Chloroquine level is 36% of that in other monkeys monitored.
same,Chloroquine in plasma,"[4]; im, 4 mg/kg",300 ng ml^-
"CN1CC=C(c2ccccc2)CC1 [MPTP, 1-Methyl-4-phenyl-1,2,5,6-tetrahydropyridine]",association constant K1,"[5]; MPTP 5.7 µM - […], room temperature, one hour, first class of binding sites, 60 min",K1 = 2.32 x 10^5 M^-1
same,total binding capacity (Σn),[5]; beef eye melanin,0.53 µmol/mg melanin
same,number of binding sites n1,[5]; first class of binding sites,n1 = 0.09 µ mole per mg melanin
same,number of binding sites n2,[5]; second class of binding sites,n2 = 0.44 µ mole per mg melanin
same,association constant K2,"[5]; second class of binding sites, 60 min",K2 = 1.22 x 10^3 M^-1
same,number of binding sites n1,[6]; first class of binding sites,n1 = 0.08 µ mole per mg melanin
same,association constant K1,"[6]; first class of binding sites, 60 min",K1 = 5.82 x 10^5 M^-1
same,association constant K2,"[6]; second (intermediary) class of binding sites, 60 min",K2 = 1.22 x 10^4 M^-1
same,number of binding sites n2,[6]; second class of binding sites,n2 = 0.05 µ mole per mg melanin
same,number of binding sites n3,[6]; third class of binding sites,n3 = 0.14 µ mole per mg melanin
same,association constant K3,"[6]; third class of binding sites, 60 min",K3 = 7.68 x 10^2 M^-1
same,Neurological Status: Spontaneous Movement,"[1]; MPTP alone 0.35 mg per kg i.v. daily for four days, individual monkeys",1
same,Neurological Status: Total (x 5.26),"[1]; MPTP alone, individual monkeys",16 and 29 and 8
same,Neurological Status: Reflexes,"[1]; MPTP alone, individual monkeys",0.5 and 1.5 and 0
same,Neurological Status: Tone,"[1]; MPTP alone, individual monkeys",0.5 (2×) and 2
same,Neurological Status: Tremor,"[1]; MPTP alone, individual monkeys",1 (2×) and 0
same,"striatal DA level, % of control",C57 black mice [7]; 15 months after MPTP 20 mg/kg/h x 4,69 % of control
same,striatal concentration of DOPAC,"C57 black mice [7]; MPTP 20 mg/kg/h x 4, control 0.96 (±0.14)",0.28 (±0.02) µg/g
same,striatal concentration of HVA,"C57 black mice [7]; MPTP 20 mg/kg/h x 4, control 1.38 (±0.05)",0.60 (±0.06) µg/g
same,DA,C57 black mice [7]; mouse striatum one week after MPTP 20 mg/kg/h x 4 i.p.,2.8 ± 0.5 µg/g
same,DA,C57 black mice [7]; mouse striatum one week after MPTP 30 mg/kg/day x 10 i.p.,3.5 ± 0.3 µg/g
same,% Depletion of striatal DA,C57 black mice [7]; [15],74%
same,"HVA, % of control",C57 black mice [7]; [15],43 % of control
same,"striatal DA level, % of control",C57 black mice [7]; [15],28 % of control
same,% Depletion of striatal DA,C57 black mice [7]; one week after MPTP 30 mg/kg/day x 10,67%
same,"HVA, % of control",C57 black mice [7]; [16],80 % of control
same,depletion of striated DA,C57 black mice [7]; [16],34%
same,HVA,"C57 black mice [7]; three months after MPTP, control 1.36 ± 0.11",1.09 ± 0.04 µg/g
same,DOPAC,"C57 black mice [7]; three months after MPTP, controls 1.53 ±0.09 µg/g",1.03 ± 0.03 µg\g
same,"Vmax of [^3H]DA striatal uptake, % of control",[8]; [15],37 % of control
same,decrease of Vmax of striatal synaptosomal [^3H]DA uptake,[8]; [15],62%
same,Vmax of [^3H]DA uptake,"[8]; one week after MPTP 20 mg/kg/h x 4, control 5540 ± 480",2080 ± 305 cpm[^3H]DA/mg tissue/5 min
same,Km,[8]; striatal synaptosomes of mice one week after MPTP 20 mg/kg/h x 4,0.12 ± 0.02 µM
same,"Vmax of [^3H]DA striatal uptake, % of control",[8]; [16],79 % of control
same,Vmax of [^3H]DA striatal uptake,"[8]; three months after MPTP, control 6238 (± 520)",4928 (± 408) CPM [^3H]DA/mg tissue/5 min
same,reduction of Bmax of [^3H]mazindol binding sites,[9],44%
same,Bmax of [^3H]mazindol binding,[9]; control 361,201 pmol/g tissue
same,mortality,"[10]; 20 mg/kg/h x 4 regimen, read-out: mice that die",~20%
same,mortality,[10]; read-out: animals killed,> 50%
same,lethality,C57 black mice [11],No lethality
same,fine granular argyrophilic debris in striata,"C57 black mice [12]; MPTP 20 mg/kg/h x 4, killed one day later",Three of three mice
same,behavioural effect of MPTP,squirrel monkeys,profoundly akinetic
"NCCc1ccc(O)c(O)c1 [[^3H]DA, dopamine]",Km,[8]; striatal synaptosomes of control mice,0.14 ± 0.02 µM
C#CCN(C)Cc1ccccc1 [pargyline],evidence of striatal terminal degeneration,"C57 black mice [12]; pretreated with 25 mg/kg of pargyline, then MPTP 20 mg/kg/h x 4",None of three mice
